*: point of attachment. NHNH2 = NN*
What was measured:
HCT116 cells = assay: EGFP mRNA delivery, robotic library screening, HCT116; assay type: cell-based
Description: Cells were seeded in a 96 well plate the day before the experiment at a concentration of 50,000 cell/mL (100 μL/w) in DMEM+10% FBS+1% Gln-Abt. For robotic library screening, the delivery of EGFP-mRNA (from TriLink, fully substituted with 5-methoxyuridine, capped and polyadenylated; TriLink, CleanCap® EGFP mRNA (5moU), ref. L-7201) in six different cell lines was performed. Amphiphilic molecule stock solutions were prepared in DMSO as described above and diluted in DMEM to afford a range of concentrations. The solutions of EGFP-mRNA/amphiphilic molecule complexes were freshly prepared prior to the transfection experiments. 35 μL of the corresponding amphiphile were added to 10 μL of a solution of EGFP-mRNA at 10 ng/μL in DMEM. The mixture was shaken for 30 min at room temperature before the addition to the cells. The cell medium was aspirated, and cells were washed with PBS twice. Cells were covered with 39 μL of DMEM and 11 μL of the complex's solution were added to the cells and incubated for 4 h (final concentration of peptide=2.5, 5 and 10 μM; final concentration of EGFP-mRNA=25 ng/well). After the incubation, the medium was replaced by 100 μL of fresh DMEM supplemented with 10% FBS. The total EGFP fluorescence was quantified after 72 h in a well plate reader. Amphiphile transfection efficiency was compared and normalized to Lipofectamine® MessengerMax efficiency (value of 1 in Tables 1-5 and 7; double underlined numbers). All experiments were done in triplicate.
Tables 1-7: RLuc (pDNA) or EGFP (mRNA) expression levels were normalized to Lipofectamine reagents (value=1) and expressed as fold-times signal increase. In the case of siRNA, the siRNA treated cells fluorescence was compared with siMOCK control fluorescence, while Cas9-RNP mediated knockout was measured against the fluorescence of untreated cells. In both siRNA and Cas9-RNP, values are expressed as % fluorescence reduction. Amphiphile concentration was 5 μM in all cases. All experiments were performed in triplicate.
Tables 14-19 show the mean (triplicates) fluorescence intensity measured after the transfection of EGFP mRNA by different amphiphiles at different concentrations in a variety of cell lines. Background fluorescence values, accounted by untreated control cells, were subtracted for processing.

[1] = system: HepG2 cells expressing EGFP; assay: Cas9-RNP delivery against EGFP (gene editing, plate reader), HepG2; assay type: cell-based
Description: To generate an EGFP expressing HeLa cell line, HeLa cells were transfected with EGFP pDNA (pEGFP-C1, Clontech) and stable transfectants were selected with 400 μg/mL of G-418 (Millipore). Green clones were selected by epifluorescence microscopy and tested for EGFP expression stability through several passages. […] All other EGFP-expressing cell lines were obtained in a similar way from parent non-EGFP-expressing cell lines.
Cells expressing EGFP were seeded in a 96 well plate the day before the experiment at a concentration of 50,000 cell/mL (100 μL/w) in DMEM+10% FBS+1% Gln-Abt. For robotic library screening, the delivery of Cas9-RNP against EGFP (RNP designed to knock-out the gene encoding for the enhanced green fluorescent protein (EGFP)) was performed. For RNP assembly, 9.2 μL of crRNA and 9.2 μL of tracrRNA were mixed in 211.6 μL of Nuclease-Free Duplex Buffer (IDT), incubated for 5 min at 95° C. and slowly cooled at rt (see I. Lostalé-Seijo, et al. Peptide/Cas9 nanostructures for ribonucleoprotein cell membrane transport and gene edition, Chem. Sci., 2017). Cas9 protein was dissolved in DMEM at a final concentration of 4 μM and equal volumes of the RNA complex and Cas9 were mixed and incubated for 5 min at rt. 75 μL of the corresponding amphiphile concentrations were added to 5 μL of RNP at 2 μM. The mixture was shaken for 30 min at room temperature before the addition to the cells. The cell medium was aspirated, and cells were washed twice with PBS. Cells were covered with 30 μL of DMEM and 20 μL of the RNP/amphiphile complexes were added to the cells (final peptide concentrations=2.5, 5 and 10 μM; final Cas9-RNP concentration=50 nM) and incubated for 4 h. After the incubation, the medium was replaced by 100 μL of fresh DMEM supplemented with 10% FBS. The total EGFP fluorescence was quantified after 72 h in a plate reader (FIG. 2, Table 1 (right) and Table 6). All experiments were done in triplicate. […]
Tables 26-31 show the mean (triplicates) percentage of gene editing, accounted by GFP fluorescence intensity decrease (% of reduction), measured after the transfection of Cas9-RNP by different amphiphiles at different concentrations in a variety of cell lines. Background values, accounted by untreated control cells, were subtracted for processing.

Row | Substance | mean fluorescence intensity (EGFP mRNA) (HCT116 cells; Dodecanal, 2.5 μM) | mean fluorescence intensity (EGFP mRNA) (HCT116 cells; Dodecanal, 5 μM) | mean fluorescence intensity (EGFP mRNA) (HCT116 cells; Dodecanal, 10 μM) | mean fluorescence intensity (EGFP mRNA) (HCT116 cells; Myristoleyl, 2.5 μM) | mean fluorescence intensity (EGFP mRNA) (HCT116 cells; Myristoleyl, 5 μM) | percentage of gene editing, GFP fluorescence intensity decrease (% of reduction) ([1]; Dodecanal, 5 μM) [%] | percentage of gene editing, GFP fluorescence intensity decrease (% of reduction) ([1]; Dodecanal, 10 μM) [%] | percentage of gene editing, GFP fluorescence intensity decrease (% of reduction) ([1]; Dodecanal, 15 μM) [%] | percentage of gene editing, GFP fluorescence intensity decrease (% of reduction) ([1]; Myristoleyl, 5 μM) [%] | percentage of gene editing, GFP fluorescence intensity decrease (% of reduction) ([1]; Myristoleyl, 10 μM) [%] | percentage of gene editing, GFP fluorescence intensity decrease (% of reduction) ([1]; Myristoleyl, 15 μM) [%] | percentage of gene editing, GFP fluorescence intensity decrease (% of reduction) ([1]; Oleyl, 10 μM) [%] | percentage of gene editing, GFP fluorescence intensity decrease (% of reduction) ([1]; Oleyl, 15 μM) [%] | also measured
1 | Ac-RK*LRK*K*L-NH2 (Ac-RK(NHNH2)LRK(NHNH2)K(NHNH2)L-NH2; not fully specified; printed as Ac-RK*LRK*K*L-NH2; also: K*2,K*5,K*6: native or modified lysine (ε-amide to a linker)) [Peptide 7.3] | 5668 | 6749 | 1139 | 35826 | 2060 | −21 | −24 | −29 | −19 | −20 | −14 | −3 | −1 | mean fluorescence intensity (EGFP mRNA) (HCT116 cells; Petroselinyl, 2.5 μM): 6670; mean fluorescence intensity (EGFP mRNA) (HCT116 cells; Petroselinyl, 5 μM): 1464; mean fluorescence intensity (EGFP mRNA) (HCT116 cells; Petroselinyl, 10 μM): 1093; percentage of gene editing, GFP fluorescence intensity decrease (% of reduction) ([1]; Oleyl, 5 μM): −7%; percentage of gene editing, GFP fluorescence intensity decrease (% of reduction) ([1]; Palmitoleyl, 5 μM): −14%; percentage of gene editing, GFP fluorescence intensity decrease (% of reduction) ([1]; Palmitoleyl, 10 μM): −14%; percentage of gene editing, GFP fluorescence intensity decrease (% of reduction) ([1]; Palmitoleyl, 15 μM): −4%; percentage of gene editing, GFP fluorescence intensity decrease (% of reduction) ([1]; Petroselinyl, 10 μM): −1%
2 | Ac-RK*LRRK*L-NH2 (Ac-RK(NHNH2)LRRK(NHNH2)L-NH2; not fully specified; printed as Ac-RK*LRRK*L-NH2; also: K*2,K*6: native or modified lysine (ε-amide to a linker)) [Peptide 7.2] | 613 | 672 | 1077 | 4952 | 1710 | −23 | −56 | −47 | −42 | −40 | −21 | – | – | –
3 | Ac-RRLK*RLLRRLK*RL-NH2 (Ac-RRLK(NHNH2)RLLRRLK(NHNH2)RL-NH2; not fully specified; printed as Ac-RRLK*RLLRRLK*RL-NH2; also: K*4,K*11: native or modified lysine (ε-amide to a linker)) [Peptide 13.2] | – | – | – | – | – | −36 | −41 | 9 | – | – | – | −21 | −33 | –

Source: patent US20250304623A1, “PEPTIDES FOR INTRACELLULAR DELIVERY” (UNIVERSIDADE DE SANTIAGO DE COMPOSTELA, priority 2022, published 2025)
